Entries after “also recorded” stand apart in the source; their conditions may differ.
Tests used:
[1] = Parallel plate rheometry of crosslinked SLac peptide hydrogels; type: physicochemical; details: drug as crosslinker of 1 w % SLac hydrogel, pH 7.4
Method: Peptide solutions were made by dissolving lyophilized SLac in 298 mM sucrose-water at a concentration of 2 w %, pH 7.4. Hydrogels were constructed by addition of Hank's balanced salt solution (HBSS) at a 1:1 ratio. Multivalent drugs were added at similar concentrations, approximating physiological doses, to SLac solutions with final concentrations of: SLac—0.4 mM (1 w %); concentration of positive lysine charges—0.8 mM; suramin—3.8 mM (0.5 w %) or 0.38 mM (0.05 w %); trypan blue—3.2 mM (0.2 w %); heparin ˜2.78 mM (5 w %); clodronate disodium—3.4 mM; phosphate buffer—38 mM and 5 mM; and 0.9% saline. Negatively charged polyvalent ions in buffer solution facilitated intermolecular ionic interactions with lysine residues, crosslinking the hydrogel. Rheological behavior of peptide hydrogels was determined using an 8 mm parallel plate geometry at a gap of 250 μm. 50 μL of hydrogel was constructed and, within 30 min, placed on stainless steel plates of a rheometer. A frequency sweep (0.1-100 Hz, at constant 1% strain), strain sweep (0-1000%/strain, at 1 Hz) and shear recovery (1% strain for 30 min, 100% strain for 60 s, 1% strain for 30 min) were performed. We ensured the phase angle δ≦90° to ensure no slipping.

[2] = Suramin drug loading and release from MDP hydrogel into HBSS; type: physicochemical
Method: Suramin was dissolved in 0.9% saline and loaded into MDP hydrogel (100 μL of SLac dissolved in 298 mM sucrose+100 μL of drug/saline) in microcentrifuge tubes. 1 mL of release media (HBSS) was added to gels placed in a humidified 5% CO2 cell culture incubator at 37° C. 200 μL aliquots of release media were assayed, with replenishment, daily for 30 days. To determine short term release kinetics, in a separate setup, aliquots were assayed at 1, 2, 4, 8, 12, 24, 48 and 72 hr. Concentration of drug was determined using UV spectrophotometry at 313 nm, n=5. Mass release data were plotted as a function of cumulative release of drug in Sigmaplot. Drug release was modeled using the Korsmeyer-Peppas equation.

SMILES: Cc1ccc(C(=O)Nc2ccc(S(=O)(=O)O)c3cc(S(=O)(=O)O)cc(S(=O)(=O)O)c23)cc1NC(=O)c1cccc(NC(=O)Nc2cccc(C(=O)Nc3cc(C(=O)Nc4ccc(S(=O)(=O)O)c5cc(S(=O)(=O)O)cc(S(=O)(=O)O)c45)ccc3C)c2)c1 [suramin]
- mechanical strength, storage modulus G′ / loss modulus G″ [1]: order of magnitude increase in mechanical strength with increase in concentration; also recorded: an order of magnitude higher G′/G″
- mechanism of release ([2]; 1 mg/mL loaded gels): non-Fickian diffusion/Case II transport dependent
- release exponent (t) of Korsmeyer-Peppas model ([2]; 1 mg/mL loaded gels): ≈ 1.0
- mechanism of release ([2]; 10 mg/mL loaded gels): diffusion dependent
- release exponent (t) of Korsmeyer-Peppas model ([2]; 10 mg/mL loaded gels): ≈ 0.5
- Maximum cumulative suramin concentration ([2]; high loading): 0.6 mg/mL
- Maximum cumulative suramin concentration ([2]; low loading): 0.04 mg/mL
- drug release ([2]; over a 20 day period, from SLac-based scaffolds): approximately 50%
- retention of drug ionically cross-linked ([2]; over a period of 30 days): up to 40%
- drug releasing from hydrogel scaffolds ([2]; over the first 30 days, depending on loading concentration): 40-60%
